# Assay results from US11564394B2, “Distorted gold (I)-phosphine complexes and methods for use as antifungal agents” (University of Kentucky Research Foundation, priority 2019, dated 2023).
# Where two headings read alike, the source gives them in different places.
# What was measured:
# [1] = test system: C. auris AR Bank # 0384 (strain K); assay: MIC determination (broth microdilution); assay type: cell-based, Candida auris; details: strain K = C. auris AR Bank # 0384
# [2] = test system: C. auris AR Bank # 0390 (strain L); assay: MIC determination (broth microdilution); assay type: cell-based, Candida auris; details: strain L = C. auris AR Bank # 0390
# [3] = test system: C. auris AR Bank # 0381 (strain I); assay: MIC determination (broth microdilution); assay type: cell-based, Candida auris; details: Candidozyma auris, strain I = C. auris AR Bank # 0381, MIC-2, optical density at 600 nm
# [4] = test system: C. auris AR Bank # 0382 (strain II); assay: MIC determination (broth microdilution); assay type: cell-based, Candida auris; details: Candidozyma auris, strain II = C. auris AR Bank # 0382, MIC-2
# [5] = test system: C. auris AR Bank # 0383 (strain III); assay: MIC determination (broth microdilution); assay type: cell-based, Candida auris; details: Candidozyma auris, strain III = C. auris AR Bank # 0383, MIC-2
# [6] = test system: C. auris AR Bank # 0385 (strain IV); assay: MIC determination (broth microdilution); assay type: cell-based, Candida auris; details: Candidozyma auris, strain IV = C. auris AR Bank # 0385, MIC-2
# [7] = test system: C. auris AR Bank # 0386 (strain V); assay: MIC determination (broth microdilution); assay type: cell-based, Candida auris; details: Candidozyma auris, strain V = C. auris AR Bank # 0386, MIC-2
# [8] = test system: C. auris AR Bank # 0387 (strain VI); assay: MIC determination (broth microdilution); assay type: cell-based, Candida auris; details: Candidozyma auris, strain VI = C. auris AR Bank # 0387, MIC-2
# [9] = test system: C. auris AR Bank # 0388 (strain VII); assay: MIC determination (broth microdilution); assay type: cell-based, Candida auris; details: Candidozyma auris, strain VII = C. auris AR Bank # 0388, MIC-2
# [10] = test system: C. auris AR Bank # 0389 (strain VIII); assay: MIC determination (broth microdilution); assay type: cell-based, Candida auris; details: Candidozyma auris, strain VIII = C. auris AR Bank # 0389, MIC-2
# [11] = test system: C. albicans ATCC MYA-1003(R) (strain A); assay type: cell-based, Candida albicans; details: strain A = C. albicans ATCC MYA-1003(R); MIC-0; 48 h at 35° C.
# [12] = test system: C. albicans ATCC 10231(R) (strain B); assay type: cell-based, Candida albicans
# [13] = test system: C. albicans ATCC MYA-1237(R) (strain C); assay type: cell-based, Candida albicans; details: strain C = C. albicans ATCC MYA-1237(R); MIC-0; 48 h; listed as printed beside letter D
# [14] = test system: C. albicans ATCC MYA-2310(S) (strain D); assay: MIC determination (broth microdilution); assay type: cell-based, Candida albicans; details: strain D = C. albicans ATCC MYA-2310(S); MIC-0; 48 h; listed as printed beside letter E
# [15] = test system: C. albicans ATCC MYA-2876(S) (strain E); assay: MIC determination (broth microdilution); assay type: cell-based, Candida albicans; details: strain E = C. albicans ATCC MYA-2876(S); MIC-0; 48 h; listed as printed beside letter F
# [16] = test system: C. albicans ATCC 64124(R) (strain F); assay type: cell-based, Candida albicans; details: strain F = C. albicans ATCC 64124(R); MIC-0; 48 h; listed as printed beside letter G
# [17] = test system: C. albicans ATCC 90819(R) (strain G); assay type: cell-based, Candida albicans; details: strain G = C. albicans ATCC 90819(R); MIC-0; 48 h; listed as printed without letter, below G
# [18] = test system: C. glabrata ATCC 2001 (strain H); assay: MIC determination (broth microdilution); assay type: cell-based, Candida glabrata; details: strain H = C. glabrata ATCC 2001; MIC-0; 48 h at 35° C.
# [19] = test system: C. krusei ATCC 6258 (strain I); assay: MIC determination (broth microdilution); assay type: cell-based; details: strain I = C. krusei ATCC 6258; MIC-0; 48 h; listed as split over r16 and r17 (r17 printed beside letter J)
# [20] = test system: C. parapsilosis ATCC 22019 (strain J); assay: MIC determination (broth microdilution); assay type: cell-based; details: strain J = C. parapsilosis ATCC 22019; MIC-0; 48 h; listed as printed beside letter K
# [21] = test system: C. neoformans ATCC MYA-85 (strain M); assay: MIC determination (broth microdilution); assay type: cell-based, Cryptococcus neoformans; details: strain M = C. neoformans ATCC MYA-85; MIC-0; 72 h at 35° C.
# [22] = test system: C. neoformans CN1 (strain N); assay: MIC determination (broth microdilution); assay type: cell-based, Cryptococcus neoformans; details: MIC-0, 72 h at 35° C.
# [23] = test system: C. neoformans CN2 (strain O); assay: MIC determination (broth microdilution); assay type: cell-based, Cryptococcus neoformans; details: MIC-0, 72 h at 35° C.
# [24] = test system: C. neoformans CN3 (strain P); assay: MIC determination (broth microdilution); assay type: cell-based, Cryptococcus neoformans; details: MIC-0, 72 h at 35° C.
# [25] = test system: A. nidulans ATCC 38163 (strain Q); assay: MIC determination (broth microdilution); assay type: cell-based, Aspergillus nidulans; details: strain Q = A. nidulans ATCC 38163; MIC-0; 72 h at 35° C.
# [26] = test system: A. terreus ATCC MYA-3633 (strain R); assay type: cell-based, Aspergillus terreus; details: strain R = A. terreus ATCC MYA-3633; MIC-0; 72 h at 35° C.
# [27] = test system: A. flavus ATCC MYA-3631 (strain S); assay: MIC determination (broth microdilution); assay type: cell-based, Aspergillus flavus; details: strain S = A. flavus ATCC MYA-3631; MIC-0; 72 h at 35° C.
# [28] = test system: F. graminearum 053 (strain T); assay type: cell-based, Fusarium graminearum; details: strain T = F. graminearum 053; MIC-0; room temperature, 5 days
# [29] = test system: fungal strains (Candida spp., Cryptococcus spp., Aspergillus spp., Fusarium spp.); assay: MIC determination, summary statements over the strain panel; assay type: cell-based
# [30] = Candidozyma auris, MIC-2, read-out: MIC (MIC-2 for azoles)
# [31] = Candidozyma auris, MIC-2, read-out: MIC (MIC-2 for azoles, in parentheses)
# [32] = read-out: MIC (MIC-2 for azoles)
# [33] = read-out: MIC (MIC-2 for azoles, in parentheses)
# [34] = MIC-0, 48 h (CAS read at 24 h), Table 1, also in Table 2
# [35] = MIC-0, 48 h (CAS read at 24 h), Table 1 row printed without letter, below L, also in Table 2
compound,measurement,setting,value
"C[C@@H](c1ncncc1F)[C@](O)(Cn1cncn1)c1ccc(F)cc1F [VRC, voriconazole]",MIC,[1]; [30],0.24 µg/mL
same,MIC,[1]; [31],0.7 µM
same,MIC,[2]; [30],0.49 µg/mL
same,MIC,[2]; [31],1.4 µM
same,MIC,[3]; [32],0.06 µg/mL
same,MIC,[3]; [33],0.2 µM
same,MIC,[4]; [32],0.06 µg/mL
same,MIC,[4]; [33],0.2 µM
same,MIC,[5]; [32],1.95 µg/mL
same,MIC,[5]; [33],5.6 µM
same,MIC,[6]; [32],3.9 µg/mL
same,MIC,[6]; [33],11.2 µM
same,MIC,[7]; [32],3.9 µg/mL
same,MIC,[7]; [33],11.2 µM
same,MIC,[8]; [32],0.06 µg/mL
same,MIC,[8]; [33],0.2 µM
same,MIC,[9]; [32],0.49 µg/mL
same,MIC,[9]; [33],1.4 µM
same,MIC,[10]; [32],0.98 µg/mL
same,MIC,[10]; [33],2.8 µM
"OC(Cn1cncn1)(Cn1cncn1)c1ccc(F)cc1F [FLC, fluconazole]",MIC,[1]; [30],31.3 µg/mL
same,MIC,[1]; [31],102 µM
same,MIC,[2]; [30],> 62.5 µg/mL
same,MIC,[2]; [31],> 204 µM
same,MIC,[3]; [32],0.49 µg/mL
same,MIC,[3]; [33],1.6 µM
same,MIC,[4]; [32],0.49 µg/mL
same,MIC,[4]; [33],1.6 µM
same,MIC,[6]; [32],> 62.5 µg/mL
same,MIC,[6]; [33],> 204 µM
same,MIC,[7]; [32],> 62.5 µg/mL
same,MIC,[7]; [33],> 204 µM
same,MIC,[8]; [32],0.98 µg/mL
same,MIC,[8]; [33],3.2 µM
same,MIC,[9]; [32],> 62.5 µg/mL
same,MIC,[9]; [33],> 204 µM
same,MIC,[10]; [32],> 62.5 µg/mL
same,MIC,[10]; [33],> 204 µM
"CC1CCC(C)[P+]1([Au-][Cl])c1ccccc1[P+]1([Au-][Cl])C(C)CCC1C [Compound 5, [1,2-bis[(2R,5R)-2,5-dimethylphospholano]benzene]digold(1)]",MIC,[11],3.9 µg/mL
same,MIC (in parentheses),[11],5.1 µM
same,MIC,[12],31.3 (40.6) μg/mL
same,MIC (in parentheses),[12],31.3 (40.6) μM
same,MIC,[13],15.6 µg/mL
same,MIC (in parentheses),[13],20.2 µM
same,MIC,[14],7.8 µg/mL
same,MIC (in parentheses),[14],10.1 µM
same,MIC,[15],15.6 µg/mL
same,MIC (in parentheses),[15],20.2 µM
same,MIC,[16],15.6 µg/mL
same,MIC (in parentheses),[16],20.2 µM
same,MIC,[17],7.8 µg/mL
same,MIC (in parentheses),[17],10.1 µM
same,MIC,[18],15.6 µg/mL
same,MIC (in parentheses),[18],20.2 µM
same,MIC,[19],31.3 µg/mL
same,MIC (in parentheses),[19],40.6 µM
same,MIC,[20],15.6 µg/mL
same,MIC (in parentheses),[20],20.2 µM
same,MIC,[1]; [34],> 31.3 µg/mL
same,MIC (in parentheses),[1]; [34],> 40.6 µM
same,MIC,[2]; [35],> 31.3 µg/mL
same,MIC (in parentheses),[2]; [35],> 40.6 µM
same,MIC,[21],0.12 µg/mL
same,MIC (in parentheses),[21],0.2 µM
same,MIC,[22],15.6 µg/mL
same,MIC (in parentheses),[22],20.2 µM
same,MIC,[23],7.8 µg/mL
same,MIC (in parentheses),[23],10.1 µM
same,MIC,[24],7.8 µg/mL
same,MIC (in parentheses),[24],10.1 µM
same,MIC,[25],> 31.3 µg/mL
same,MIC (in parentheses),[25],> 40.6 µM
same,MIC,[26],> 31.3 µg/mL
same,MIC (in parentheses),[26],> 40.6 µM
same,MIC,[27],> 31.3 µg/mL
same,MIC (in parentheses),[27],> 40.6 µM
same,MIC,[28],> 31.3 µg/mL
same,MIC (in parentheses),[28],> 40.6 µM
same,antifungal activity,"[29]; Aspergillus spp., Fusarium spp. and most of the non-albicans Candida strains",inactive
same,overall assessment as antifungals,[29]; panel of twenty fungal strains (Table 1),poor antifungals
